Laboratory results: patent publication US20180168208A1 (priority 2014, published 2018)
Like-named read-outs stand apart in the source and are kept apart here.

Tests used:
Test in all cases: cell-based
T1R1/T1R3 receptor [1] = molecular target: T1, T1R1/T1R3 receptor (Felis catus, UniProt E3UMS2); details: for Activity: overall call: active or N/A (not active) on T1R1/T1R3
Source text: (§1) HEK293 cells that stably express T1R3 and inducibly express T1R1 were exposed to nucleotide derivatives alone to activate the umami receptor. Activation of the T1R1/T1R3 receptor was detected by a change in intracellular calcium levels using a calcium sensitive fluorescent dye. Cells that express T1R3 but not T1R1 were used as a control. A FLIPR® Tetra or a FlexStation® 3 was used for data capture.
as §1, with “alone or in combination with one or more amino acids and/or one or more nucleotides” for “alone”, “dye and/or a luminescent reporter system.” for “dye.”
as §1, with “transmembrane compounds” for “nucleotide derivatives”, “alone or in combination with one or more amino acids and/or one or more nucleotides” for “alone”
(§2) In each experiment, serial dilutions of up to 10 mM of the transmembrane compound were added to the T1R1/T1R3-expressing cells.

cat T1R1/T1R3 receptor = molecular target: T2, cat T1R1/T1R3 receptor (Felis catus, UniProt A0ABI7Z2I4)
T2 sequence (A0ABI7Z2I4 171-420): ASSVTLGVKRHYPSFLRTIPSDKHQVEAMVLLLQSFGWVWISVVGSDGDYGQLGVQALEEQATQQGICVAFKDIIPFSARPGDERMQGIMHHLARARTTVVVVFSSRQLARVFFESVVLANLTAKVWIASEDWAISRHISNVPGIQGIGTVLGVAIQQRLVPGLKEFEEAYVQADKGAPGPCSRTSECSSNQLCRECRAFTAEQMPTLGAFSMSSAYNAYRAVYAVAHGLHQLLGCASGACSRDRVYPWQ
T2 sequence (Q49KI5 25-865 E206Q/N523D/F654L partner): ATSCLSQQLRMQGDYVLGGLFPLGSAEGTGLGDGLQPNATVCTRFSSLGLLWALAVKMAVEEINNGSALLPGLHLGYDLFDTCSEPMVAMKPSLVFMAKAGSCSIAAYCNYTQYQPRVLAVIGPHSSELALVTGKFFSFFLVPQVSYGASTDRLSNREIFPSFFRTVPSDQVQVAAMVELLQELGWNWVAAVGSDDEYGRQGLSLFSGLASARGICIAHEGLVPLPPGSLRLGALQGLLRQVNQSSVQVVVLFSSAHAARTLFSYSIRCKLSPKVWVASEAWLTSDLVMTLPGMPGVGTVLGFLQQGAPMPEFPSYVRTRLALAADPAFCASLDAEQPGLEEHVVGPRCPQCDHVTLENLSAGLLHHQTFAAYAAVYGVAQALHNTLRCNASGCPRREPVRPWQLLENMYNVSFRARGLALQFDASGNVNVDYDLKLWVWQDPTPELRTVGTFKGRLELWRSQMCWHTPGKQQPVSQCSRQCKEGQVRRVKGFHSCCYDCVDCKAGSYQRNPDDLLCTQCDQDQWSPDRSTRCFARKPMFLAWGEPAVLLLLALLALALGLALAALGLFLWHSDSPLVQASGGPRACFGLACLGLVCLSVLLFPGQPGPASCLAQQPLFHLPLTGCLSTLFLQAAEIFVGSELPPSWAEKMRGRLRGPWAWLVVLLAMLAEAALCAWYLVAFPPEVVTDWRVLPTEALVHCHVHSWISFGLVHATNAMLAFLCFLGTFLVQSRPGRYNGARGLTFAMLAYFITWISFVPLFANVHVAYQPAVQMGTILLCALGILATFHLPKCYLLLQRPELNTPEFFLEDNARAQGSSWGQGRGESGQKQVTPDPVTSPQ
Source text: as §1, with “alone or in combination with one or more amino acids and/or one or more nucleotides” for “alone”, “dye and/or a luminescent reporter system.” for “dye.”

T1R1/T1R3 receptor [2] = molecular target: T1, T1R1/T1R3 receptor; type: cell-based
Source text: as §1, with “transmembrane compounds” for “nucleotide derivatives”, “alone or in combination with one or more amino acids and/or one or more nucleotides” for “alone”
as §2

[3] = EC50 (mM), +IMP (0.2 mM), in the presence of 0.2 mM IMP
[4] = T1R1/T1R3 EC50 +0.2 mM IMP, +0.2 mM IMP
[5] = T1R1/T1R3 EC50 +20 mM L-alanine + 0.2 mM IMP, +20 mM L-alanine + 0.2 mM IMP
[6] = in the presence of 0.2 mM IMP, relative to alanine
[7] = threshold concentration in the presence of 0.2 mM IMP
[8] = alone in buffer, read-out: T1R1/T1R3 EC50 alone in buffer
[9] = compound alone in buffer, read-out: EC50 (mM), +buffer (alone)
[10] = EC50 (mM), +Alanine (20 mM) + IMP (0.2 mM), in the presence of 20 mM alanine and 0.2 mM IMP
[11] = EC50 (effect with 0.2 mM IMP), positive controls measured with 0.2 mM IMP
[12] = EC50 (effect with 0.2 mM IMP), control compounds, with 0.2 mM IMP, Table 25
[13] = T1R1/T1R3 EC50 +20 mM L-alanine, +20 mM L-alanine

Structure (SMILES)	Max resp % of IMP, +Alanine (20 mM) (T1R1/T1R3 receptor [1]) [%]	EC50 (T1R1/T1R3 receptor [1]; [3]) [mM]	Max resp % of Ala, +IMP (0.2 mM) (T1R1/T1R3 receptor [1]; [6]) [%]	Thres (mM), +Alanine (20 mM) (T1R1/T1R3 receptor [1]) [mM]	Thres (mM), +IMP (0.2 mM) (T1R1/T1R3 receptor [1]; [7]) [mM]	EC50 (T1R1/T1R3 receptor [2]; [11]) [mM]	EC50 (T1R1/T1R3 receptor [1]; [12]) [mM]	EC50 (cat T1R1/T1R3 receptor; read-out: EC50) [mM]	other results
CC(=O)Nc1ccc(C(=O)Nc2cc(-c3ccccc3)nn2CCO)cc1 [4-acetamido-N-(1-(2-hydroxyethyl)-3-phenyl-1H-pyrazol-5-yl)benzamide]	1.8	> 1	58.8	–	–	–	–	–	EC50 (T1R1/T1R3 receptor [1]; [4]): > 0.1 mM; EC50 (T1R1/T1R3 receptor [1]; [5]): > 0.1 mM
CCCCc1nn(CC(=O)N2CCCC2)c(=O)n1Cc1ccccc1 [4-benzyl-3-butyl-1-(2-oxo-2-(pyrrolidin-1-yl)ethyl)-1H-1,2,4-triazol-5(4H)-one]	129.9	–	193.2	0.3	0.1	–	–	–	EC50 (T1R1/T1R3 receptor [1]; [4]): > 0.3 mM; EC50 (T1R1/T1R3 receptor [1]; [5]): > 0.3 mM
O=P(O)(O)OP(=O)(O)OP(=O)(O)OC[C@H]1O[C@@H](n2cnc3c(Cl)ncnc32)[C@H](O)[C@@H]1O [6-Chloropurine riboside-5′-O-triphosphate]	50.4	–	30.2	0.01	0.003	–	–	–	EC50 (cat T1R1/T1R3 receptor): > 0.03 mM; Threshold (cat T1R1/T1R3 receptor): 0.01 mM; EC50 (T1R1/T1R3 receptor [1]; [8]): > 0.03 mM; EC50 (T1R1/T1R3 receptor [1]; [9]): > 0.3 mM; Activity (T1R1/T1R3 receptor [1]): active; EC50 (T1R1/T1R3 receptor [1]; read-out: EC50 (mM), +Alanine (20 mM)): > 0.3 mM; EC50 (T1R1/T1R3 receptor [1]; read-out: EC50 (mM), +Alanine (20 mM) + IMP (0.2 mM)): > 0.3 mM; EC50 (T1R1/T1R3 receptor [1]; read-out: EC50 (mM), +IMP (0.2 mM), in the presence of 0.2 mM IMP): > 0.3 mM; EC50 (T1R1/T1R3 receptor [1]; read-out: T1R1/T1R3 EC50 +0.2 mM IMP, +0.2 mM IMP): > 0.03 mM; EC50 (T1R1/T1R3 receptor [1]; read-out: T1R1/T1R3 EC50 +20 mM L-alanine): > 0.03 mM; EC50 (T1R1/T1R3 receptor [1]; read-out: T1R1/T1R3 EC50 +20 mM L-alanine + 0.2 mM IMP): > 0.03 mM
Nc1nc2c(ncn2[C@@H]2O[C@H](COP(=O)(O)OP(=O)(O)O)[C@@H](O)[C@H]2O)c(=S)[nH]1 [6-Thioguanosine-5′-O-diphosphate]	152.8	–	9.3	0.03	–	–	–	–	EC50 (T1R1/T1R3 receptor [1]; [10]): 0.28 mM; Max resp ΔF/F, +IMP (0.2 mM) (T1R1/T1R3 receptor [1]; in the presence of 0.2 mM IMP): 0.0720 ΔF/F
Nc1nc2c(ncn2[C@@H]2O[C@H](COP(=O)(O)O)[C@@H](O)[C@H]2O)c(=O)[nH]1 [GMP, guanosine monophosphate, reference compound]	–	–	–	–	–	0.05 ± 0.004	0.09 ± 0.02	–	EC50 (cat T1R1/T1R3 receptor): 0.02 mM; Threshold (cat T1R1/T1R3 receptor): 0.008 mM; EC50 (T1R1/T1R3 receptor [2]): 0.05 ± 0.02 mM; EC50 (T1R1/T1R3 receptor [2]; alone in buffer, read-out: EC50 - alone): 0.04 ± 0.01 mM
N[C@@H](CS)C(=O)O [L-Cysteine, cysteine]	–	43.9	74.6	–	10.0	39.5 ± 1.9	43.9 ± 5.6	39.5 ± 1.9	Max resp ΔF/F, +IMP (0.2 mM) (T1R1/T1R3 receptor [1]; in the presence of 0.2 mM IMP): 0.5800 ΔF/F
N[C@@H](Cc1c[nH]cn1)C(=O)O [L-Histidine, L-histidine]	–	15.3	36.3	–	10.0	10.2 ± 1.7	15.3 ± 3.2	10.2 ± 1.7	–
CSCC[C@H](N)C(=O)O [L-Methionine, methionine]	–	–	–	–	–	25.5 ± 3.7	–	–	EC50 (cat T1R1/T1R3 receptor): 25.5 ± 3.7 mM; Max resp % of Ala, +IMP (0.2 mM) (T1R1/T1R3 receptor [1]): 45.0%; Thres (mM), +IMP (0.2 mM) (T1R1/T1R3 receptor [1]): 30.0 mM; EC50 (T1R1/T1R3 receptor [1]; EC50 (effect with 0.2 mM IMP)): 33.9 ± 1.5 mM; EC50 (T1R1/T1R3 receptor [1]; EC50 (mM), +IMP (0.2 mM)): 33.9 mM
N[C@@H](Cc1ccccc1)C(=O)O [L-Phenylalanine, reference compound]	–	0.5	75.9	–	0.1	1.9 ± 0.1	0.5 ± 0.1	1.9 ± 0.1	Max resp ΔF/F, +IMP (0.2 mM) (T1R1/T1R3 receptor [1]; in the presence of 0.2 mM IMP): 0.5900 ΔF/F
N[C@@H](CO)C(=O)O [L-Serine, serine]	–	15.1	100.0	–	3.0	31.5 ± 2.3	15.1 ± 2.3	31.5 ± 2.3	–
N[C@@H](Cc1c[nH]c2ccccc12)C(=O)O [L-Tryptophan, tryptophan]	–	0.5	86.8	–	0.1	0.9 ± 0.1	0.5 ± 0.1	0.9 ± 0.1	–
N[C@@H](Cc1ccc(O)cc1)C(=O)O [L-Tyrosine, tyrosine]	–	9.3	38.0	–	3.0	–	9.3 ± 1.7	10.3 ± 0.9	–
O=C(NCCCCNC(=O)c1cccnc1)c1cccnc1 [N,N′-(butane-1,4-diyl)dinicotinamide]	9.5	–	49.2	1.0	0.1	–	–	–	–
O=C(NCCc1ccccc1)c1ccccc1 [N-phenethylbenzamide]	20.4	0.12	126.0	0.6	0.01	–	–	–	EC50 (T1R1/T1R3 receptor [1]; [10]): 0.09 mM; EC50 (T1R1/T1R3 receptor [1]; EC50 (mM), +Alanine (20 mM), in the presence of 20 mM alanine): > 1 mM; EC50 (T1R1/T1R3 receptor [1]; [4]): 0.12 ± 0.03 mM; EC50 (T1R1/T1R3 receptor [1]; [13]): > 1 mM; EC50 (T1R1/T1R3 receptor [1]; [8]): 0.33 ± 0.01 mM; EC50 (T1R1/T1R3 receptor [1]; [9]): 0.33 mM; Max resp ΔF/F, +IMP (0.2 mM) (T1R1/T1R3 receptor [1]; in the presence of 0.2 mM IMP): 0.9800 ΔF/F
O=C(NCCc1ccccc1)c1ccc2c(c1)OCO2 [N-phenethylbenzo[d][1,3]dioxole-5-carboxamide]	11.3	0.04	92.0	1.0	0.01	–	–	–	EC50 (T1R1/T1R3 receptor [1]; [10]): 0.03 mM; EC50 (T1R1/T1R3 receptor [1]; [4]): 0.04 ± 0.01 mM; EC50 (T1R1/T1R3 receptor [1]; [13]): > 1 mM; EC50 (T1R1/T1R3 receptor [1]; [8]): 0.12 ± 0.07 mM; EC50 (T1R1/T1R3 receptor [1]; [9]): 0.12 mM
O=C(NCCc1ccccc1)c1cccnc1 [N-phenethylnicotinamide]	83.6	0.35	149.5	0.1	0.03	–	–	–	EC50 (T1R1/T1R3 receptor [1]; [10]): 0.22 mM; EC50 (T1R1/T1R3 receptor [1]; [4]): 0.35 ± 0.1 mM; EC50 (T1R1/T1R3 receptor [1]; [8]): 0.37 ± 0.02 mM; EC50 (T1R1/T1R3 receptor [1]; [9]): 0.37 mM
CCOC(=O)NC(=O)C(c1ccccc1)c1ccccc1 [Ro 01-6128, reference compound]	74.8	–	199.7	0.3	0.01	–	–	–	Activity (T1R1/T1R3 receptor [1]): active
